# Experimental data: patent US12325696B2, “Indazole derivative, preparation method therefor, and pharmaceutical application thereof” (JIANGSU HENGRUI MEDICINE CO., LTD., priority 2019, dated 2025)
# Tests used:
# [1] = system: estrogen receptor reporter gene; assay: Inhibition of estrogen receptor reporter gene activity (ERE-luc luciferase) in MCF7/ERE-luc cells; type: cell-based; settings: Homo sapiens, 0.1 nM β-estradiol, 20 hours, read-out: IC50 of inhibitory activity on the activity of the estrogen receptor reporter gene
# Method: MCF7 cells MCF7/ERE-luc (ATCC, HTB-22) expressing the luciferase reporter gene ERE-luc (synthesized by GENEWIZ, Inc.) controlled by the estrogen receptor response element were cultured in MEM (GE Healthcare, SH30024.01) medium containing 10% fetal bovine serum and 500 µg/ml G418. On the first day of the experiment, MCF7/ERE-luc cells were seeded in a 96-well plate with incomplete MEM medium containing 10% fetal bovine serum treated with activated charcoal (BioSun, BS-0004-500) at a density of 30,000 cells/well (100 μl of cell suspension per well), and the plate was incubated in a cell incubator at 37° C. and 5% CO2 overnight. On the second day, 10 μl of β-estradiol (SIGMA, E2758-250MG) solution formulated with the above incomplete medium or test compound solution of different concentrations formulated with the above incomplete medium was added to each well, wherein the final concentration of β-estradiol was 0.1 nM, and the final concentrations of the compound were nine concentration points obtained by a 10-fold gradient dilution starting from 10 μM, a blank control containing 0.5% DMSO was set, and the plate was incubated in a cell incubator at 37° C. and 5% CO2 for 20 hours. On the third day, the 96-well plate was taken out, and 100 μl of ONE-Glo™ Luciferase Assay system (Promega, E6110) was added to each well to determine the activity of luciferase. The plate was left to stand at room temperature for 3 minutes until the cells were fully lysed, and the luminescence signal values were measured using a multi-label microplate reader (PerkinElmer, VICTOR 3). The IC50 values of the inhibitory activity of the compounds were calculated using Graphpad Prism software based on the concentrations and luminescence signal values of the compounds.
# The inhibitory effect of the compounds of the present disclosure on the activity of the estrogen receptor reporter gene was determined by the above test. A graph of the chemiluminescence signal values versus the logarithmic concentrations of the compound was made using Graghpad Prism.
# MCF7 cell = assay: Inhibition of proliferation of MCF7 cell (CellTiter-Glo, 144 hours); type: cell-based; settings: Homo sapiens; for IC50: MCF7, CellTiter-Glo, read-out: IC50 of the inhibitory effect on the proliferation of MCF7 cell; for Emax: MCF7 cell proliferation, read-out: Maximum inhibition
# Method: (§1) MCF7 cells (ATCC, HTB-22) were cultured in MEM (GE Healthcare, SH30024.01) complete medium containing 10% fetal bovine serum. On the first day of the experiment, MCF7 cells were seeded in a 96-well plate with the complete medium at a density of 3,000 cells/well (100 μl of cell suspension per well), and the plate was incubated in a cell incubator at 37° C. and 5% CO2 overnight. On the second day, the medium in each well was replaced with 135 μl of MEM incomplete medium containing 2% fetal bovine serum. 15 μl of test compound solution of different concentrations formulated with the incomplete medium was added to each well, wherein the final concentrations of the compound were nine concentration points obtained by a 4-fold gradient dilution starting from 100 nM. A blank control containing 0.5% DMSO was set. The plate was incubated in a cell incubator at 37° C. and 5% CO2 for 144 hours. On the eighth day, the 96-well plate was taken out, and 150 μl of CellTiter-Glo® Luminescent Cell Viability Assay (Promega, G7573) was added to each well. The plate was left to stand at room temperature for 10 minutes, and the luminescence signal values were measured using a multi-label microplate reader (PerkinElmer, VICTOR 3). The IC50 values of the inhibitory activity of the compounds were calculated based on the concentrations and luminescence signal values of the compounds using Graphpad Prism software.
# A graph of the chemiluminescence signal values versus the logarithmic concentrations of the compound was made using Graghpad Prism to obtain the IC50 values of the compound.
# MCF7 D538G = assay: Inhibition of proliferation of MCF7 cell expressing ERα D538G mutant; type: cell-based; settings: Homo sapiens, 144 hours; for Emax: read-out: Maximum inhibition
# Source text: (§2) The mutants ERα Y537S and ERα D538G of human estrogen receptor α (ERαs) protein were obtained by site-directed mutagenesis using the cDNA of wild-type ESR1 gene (Accession No. NM000125) as a template according to double-primer PCR. The primer sequences used for mutagenesis are as follows (the nucleotides underlined are the sites of mutagenesis):
# (§3) The cDNA of mutant ESR1 was cloned into the target lentiviral vector pCDH-CMV-MCS-EF1-Puro (SBI, CD510B-1). The lentiviral plasmid with the mutant ESR1 gene sequence and the lentiviral packaging plasmids pVSV-G and pCMV-dR8.91 (SBI, LV500A-1) were transfected into HEK-293T cells (ATCC, CRL-3216) by Lipofectamine 3000 Transfection Reagent (ThermoFisher Scientific, Cat #L3000075). 48 hours after the transfection, the supernatant of the virus-containing DMEM high-glycemic medium (GE Healthcare, SH30243.01) containing 10% FBS was filtered, and ultracentrifuged to obtain the virus pellet. The virus pellet was resuspended in an appropriate amount of MEM medium (GE Healthcare, SH30024.01) containing 10% FBS, non-essential amino acids (SIGMA, M7145-100ML) and sodium pyruvate (SIGMA, S8636-100ML), and the resulting suspension was added to MCF7 cells (ATCC, HTB-22). Polybrene (SIGMA, H9268-5G) at a final concentration of 8 µg/ml was added, and the cells were incubated overnight. Two days after the transfection, […] puromycin (invitrogen, A11138-03) was added to the cell culture medium for resistance screening. After about two weeks, the MCF7 cell line capable of stably expressing ERαY537S and ERα D538G mutants was obtained.
# as §1, with “MCF7 cells expressing ERα mutant were cultured” for “MCF7 cells (ATCC, HTB-22) were cultured”, “the experiment, the cells were” for “the experiment, MCF7 cells were”, “control containing 0.500 DMSO was” for “control containing 0.5% DMSO was”, “C. and […] for” for “C. and 5% CO2 for”, “and 150 of CellTiter-Glo®” for “and 150 μl of CellTiter-Glo®”
# MCF7 ERαY537S = assay: Inhibition of proliferation of MCF7 cell expressing ERα Y537S mutant; type: cell-based; settings: Homo sapiens, 144 hours; for Emax: read-out: Maximum inhibition
# Source text: as §2, §3
# as §1, with “MCF7 cells expressing ERα mutant were cultured” for “MCF7 cells (ATCC, HTB-22) were cultured”, “the experiment, the cells were” for “the experiment, MCF7 cells were”, “control containing 0.500 DMSO was” for “control containing 0.5% DMSO was”, “C. and […] for” for “C. and 5% CO2 for”, “and 150 of CellTiter-Glo®” for “and 150 μl of CellTiter-Glo®”
# [2] = target: estrogen receptor ERα wild-type (Homo sapiens (Human), UniProt P03372); assay: Covalent modification of ERα wild-type LBD by high-resolution mass spectrometry; type: binding; settings: after 24 hours; 2 μM protein, 10 μM compound, 4° C.
# Sequence of estrogen receptor ERα wild-type (P03372 296-554): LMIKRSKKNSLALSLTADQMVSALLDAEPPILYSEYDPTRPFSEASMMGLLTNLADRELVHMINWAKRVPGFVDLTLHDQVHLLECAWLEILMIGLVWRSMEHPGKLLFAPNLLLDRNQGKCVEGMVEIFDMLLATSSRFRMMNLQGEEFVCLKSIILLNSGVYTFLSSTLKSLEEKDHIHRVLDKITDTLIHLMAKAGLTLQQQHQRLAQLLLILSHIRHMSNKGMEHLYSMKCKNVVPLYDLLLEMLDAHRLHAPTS
# Method: (§4) The ligand binding domain (LBD, aa296-554) of estrogen receptor ERα wild-type and ERα Y537S mutant-type was expressed in E. coli and purified. 2 μM ERα wild-type or ERα Y537S mutant-type protein and 10 μM compound were added to a buffer solution containing 50 mM Tris-HCl, pH7.5, 150 mM NaCl, 1 mM TCEP and 5% glycerol and mixed well. The solution was incubated at 4° C. for 24 hours, followed by high-resolution mass spectrometry (Agilent Technologies, Agilent Q-tof 6530) assay. Alternatively, 1 μM ERα wild-type or ERα Y537S mutant-type protein and 3 μM compound were added to a buffer solution containing 50 mM Tris-HCl, pH7.5, 150 mM NaCl, 1 mM TCEP and 5% glycerol and mixed well. The solution was incubated at 37° C. for 15 minutes, followed by high-resolution mass spectrometry assay. In the mass spectrometry assay results, the peak whose molecular weight is the sum of the molecular weight of the protein and compound is the product of covalent modification. The percentage of covalent modification is obtained by calculating the ratio of […] to total protein.
# [3] = target: estrogen receptor ERα Y537S mutant-type (Homo sapiens (Human), UniProt P03372, Y537S); assay: Covalent modification of ERα Y537S mutant-type LBD by high-resolution mass spectrometry; type: binding; settings: after 24 hours; 2 μM protein, 10 μM compound, 4° C.
# Sequence of estrogen receptor ERα Y537S mutant-type (P03372 296-554 Y537S): as the sequence (P03372 296-554) above, with Y242S counted along it
# Method: as §4
SMILES,IC50 [1],IC50 (MCF7 cell),IC50 (MCF7 D538G),IC50 (MCF7 ERαY537S),Covalent modification effect on the estrogen receptor ERα wild-type [2],Covalent modification effect on the estrogen receptor ERα Y537S mutant-type [3],Emax (MCF7 cell),Emax (MCF7 D538G),Emax (MCF7 ERαY537S)
"O=C(/C=C/CNC1(COc2ccc(/C(=C(/CC(F)(F)F)c3ccccc3)c3ccc4[nH]nc(F)c4c3)cn2)CC1)N1CCCC1 [Example 2, (E)-1-(Pyrrolidin-1-yl)-4-((1-(((5-((Z)-4,4,4-trifluoro-1-(3-fluoro-1H-indazol-5-yl)-2-phenylbut-1-en-1-yl)pyridin-2-yl)oxy)methyl)cyclopropyl)amino)but-2-en-1-one]",3 nM,0.6 nM,2 nM,3 nM,87%,90%,112%,104%,107%
"CN(C)C(=O)/C=C/CNC1(COc2ccc(/C(=C(/CC(F)(F)F)c3ccccc3)c3ccc4[nH]nc(F)c4c3)cn2)CCCCC1 [Example 8, (E)-N,N-Dimethyl-4-((1-(((5-((Z)-4,4,4-trifluoro-1-(3-fluoro-1H-indazol-5-yl)-2-phenylbut-1-en-1-yl)pyridin-2-yl)oxy)methyl)cyclohexyl)amino)but-2-enamide]",3 nM,0.1 nM,1 nM,2 nM,96%,97%,113%,103%,107%
"CN(C)C(=O)/C=C/CN1CCC[C@@H](Oc2ccc(/C(=C(/CC(F)(F)F)c3ccc(C(F)(F)F)cc3)c3ccc4[nH]nc(F)c4c3)cn2)C1 [Example 22, (E)-N,N-Dimethyl-4-((R)-3-((5-((Z)-4,4,4-trifluoro-1-(3-fluoro-1H-indazol-5-yl)-2-(4-(trifluoromethyl)phenyl)but-1-en-1-yl)pyridin-2-yl)oxy)piperidin-1-yl)but-2-enamide]",24 nM,4 nM,15 nM,15 nM,95%,100%,103%,93%,97%

# More lines, main results first:
IC50 [1],IC50 (MCF7 cell),IC50 (MCF7 D538G),IC50 (MCF7 ERαY537S),Covalent modification effect on the estrogen receptor ERα wild-type [2],Covalent modification effect on the estrogen receptor ERα Y537S mutant-type [3],SMILES,Emax (MCF7 cell),Emax (MCF7 D538G),Emax (MCF7 ERαY537S)
5 nM,0.8 nM,2 nM,4 nM,95%,96%,"O=C(/C=C/CN[C@H]1CCCN(c2ccc(/C(=C(/CC(F)(F)F)c3ccccc3)c3ccc4[nH]nc(F)c4c3)cn2)C1)N1CCOCC1 [Example 38, (E)-1-Morpholino-4-(((S)-1-(5-((Z)-4,4,4-trifluoro-1-(3-fluoro-1H-indazol-5-yl)-2-phenylbut-1-en-1-yl)pyridin-2-yl)piperidin-3-yl)amino)but-2-en-1-one]",96%,108%,102%
6 nM,1 nM,5 nM,8 nM,98%,99%,"O=C(/C=C/CN1CCC[C@@H](Oc2ccc(/C(=C(/CC(F)(F)F)c3ccccc3)c3ccc4[nH]nc(F)c4c3)cn2)C1)N1CCNCC1 [Example 18, (E)-1-(Piperazin-1-yl)-4-((R)-3-((5-((Z)-4,4,4-trifluoro-1-(3-fluoro-1H-indazol-5-yl)-2-phenylbut-1-en-1-yl)pyridin-2-yl)oxy)piperidin-1-yl)but-2-en-1-one]",100%,104%,92%
4 nM,1.1 nM,3 nM,6 nM,,,"CN(C)C(=O)/C=C/CN[C@H]1CCN(c2ccc(/C(=C(/CC(F)(F)F)c3ccccc3)c3ccc4[nH]nc(F)c4c3)cn2)C1 [Example 35, (E)-N,N-Dimethyl-4-(((S)-1-(5-((Z)-4,4,4-trifluoro-1-(3-fluoro-1H-indazol-5-yl)-2-phenylbut-1-en-1-yl)pyridin-2-yl)pyrrolidin-3-yl)amino)but-2-enamide]",105%,104%,97%
4 nM,2 nM,9 nM,9 nM,,,"O=C(/C=C/CNC1(COc2ccc(/C(=C(/CC(F)(F)F)c3ccccc3)c3ccc4[nH]nc(F)c4c3)cn2)CC1)N1CCCCC1 [Example 3, (E)-1-(Piperidin-1-yl)-4-((1-(((5-((Z)-4,4,4-trifluoro-1-(3-fluoro-1H-indazol-5-yl)-2-phenylbut-1-en-1-yl)pyridin-2-yl)oxy)methyl)cyclopropyl)amino)but-2-en-1-one]",101%,96%,93%
